Experiments:
[1] = system: B. subtilis 168; assay: fitness (endpoint OD595 vs no drug) (fraction); higher = more growth
Summary of the method: (§1)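 Plates with 384 wells were inoculated at OD595 0.01 using 30 µl of TSB, LB Lennox or CY, or 55 µl for S. pneumoniae. Incubation was at 37 °C, with OD595 measured every 30 min for 14 h. Fitness is the stationary-phase transition optical density over the robust mean of no-drug control wells, after first-reading background subtraction; it is capped at 1.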

[2] = system: S. aureus DSM 20231; assay: as above
Summary of the method: as §1

[3] = system: S. pneumoniae D39V; assay: Bliss interaction score (quartile over a dose matrix) (fitness difference); higher = more antagonism (negative = synergy)
Summary of the method: (§2)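 Combination data were used to infer fitness under each single drug. Fitness is the OD595 at entry into stationary phase divided by the robust mean of the plate's no-drug wells, with a cap of 1. The Bliss score is the observed minus the expected product fitness, summarised by quartiles over technical, biological and donor/recipient replicates.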

[4] = system: B. subtilis 168; assay: as above
Summary of the method: as §2

[5] = system: S. aureus DSM 20231; assay: as above
Summary of the method: as §2

[6] = system: S. aureus Newman; assay: as above
Summary of the method: as §2

[7] = system: S. pneumoniae D39V; assay: fitness (endpoint OD595 vs no drug) (fraction); higher = more growth
Summary of the method: as §1
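For Bliss interaction score (quartile over a dose matrix) in this document: first quartile when negative (synergy) and third quartile when positive (antagonism).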

CO/N=C(\C(=O)N[C@@H]1C(=O)N2C(C(=O)O)=C(COC(C)=O)CS[C@H]12)c1csc(N)n1 [Cefotaxime] + COc1cc(Cc2cnc(N)nc2N)cc(OC)c1OC [Trimethoprim]
one replicate
Conditions | fitness
[1], first compound 0.00775 µg/mL, partner 0.125 µg/mL | 0.309
[1], first compound 0.00775 µg/mL, partner 0.25 µg/mL | 0.288
[1], first compound 0.00775 µg/mL, partner 0.5 µg/mL | 0.269
[1], first compound 0.0155 µg/mL, partner 0.125 µg/mL | 0.262
[1], first compound 0.0155 µg/mL, partner 0.25 µg/mL | 0.181
[1], first compound 0.0155 µg/mL, partner 0.5 µg/mL | 0.0769
[1], first compound 0.031 µg/mL, partner 0.125 µg/mL | 0.149
[1], first compound 0.031 µg/mL, partner 0.25 µg/mL | 0.0914
[1], first compound 0.031 µg/mL, partner 0.5 µg/mL | 0.0904
[1], first compound 0.0625 µg/mL, partner 0.1 µg/mL | 0.47
[1], first compound 0.0625 µg/mL, partner 0.125 µg/mL | 0.432
[1], first compound 0.0625 µg/mL, partner 0.2 µg/mL | 0.454
[1], first compound 0.0625 µg/mL, partner 0.4 µg/mL | 0.402
[1], first compound 0.125 µg/mL, partner 0.1 µg/mL | 0.364
[1], first compound 0.125 µg/mL, partner 0.125 µg/mL | 0.345
[1], first compound 0.125 µg/mL, partner 0.2 µg/mL | 0.336
[1], first compound 0.125 µg/mL, partner 0.4 µg/mL | 0.296
[1], first compound 0.25 µg/mL, partner 0.1 µg/mL | 0.109
[1], first compound 0.25 µg/mL, partner 0.125 µg/mL | 0.274
[1], first compound 0.25 µg/mL, partner 0.2 µg/mL | 0.223
[1], first compound 0.25 µg/mL, partner 0.4 µg/mL | 0.127
[1], first compound 0.5 µg/mL, partner 1 µg/mL | 0.104
[1], first compound 0.5 µg/mL, partner 2 µg/mL | 0.129
[1], first compound 1 µg/mL, partner 1 µg/mL | 0.0524
[1], first compound 1 µg/mL, partner 2 µg/mL | 0.0575
[1], first compound 2 µg/mL, partner 1 µg/mL | 0.0669
[1], first compound 2 µg/mL, partner 2 µg/mL | 0.0449
[2], first compound 0.039 µg/mL, partner 0.125 µg/mL | 0.663
[2], first compound 0.312 µg/mL, partner 0.125 µg/mL | 0.498
[2], first compound 0.312 µg/mL, partner 0.25 µg/mL | 0.384
[2], first compound 0.312 µg/mL, partner 0.5 µg/mL | 0.0438

fitness
Conditions | partner 0.125 µg/mL | partner 0.25 µg/mL | partner 0.5 µg/mL | partner 1 µg/mL
[1], first compound 0.0625 µg/mL | – | 0.386 | 0.363 | –
[1], first compound 0.125 µg/mL | – | 0.285 | 0.27 | –
[1], first compound 0.25 µg/mL | – | 0.217 | 0.19 | –
[1], first compound 0.5 µg/mL | – | – | 0.125 | –
[1], first compound 1 µg/mL | – | – | 0.108 | –
[1], first compound 2 µg/mL | – | – | 0.0672 | –
[2], first compound 0.039 µg/mL | – | 0.558 | 0.14 | 0.047
[2], first compound 0.078 µg/mL | 0.584 | 0.536 | 0.207 | 0.0436
[2], first compound 0.156 µg/mL | 0.605 | 0.57 | 0.299 | 0.0551

Conditions | Bliss interaction score
[3] | 0.224
[4] | 0.0814
[5] | 0.0326
[6] | -0.0597

COc1cccc2c1C(=O)c1c(O)c3c(c(O)c1C2=O)C[C@@](O)(C(=O)CO)C[C@@H]3O[C@H]1C[C@H](N)[C@H](O)[C@H](C)O1 [Doxorubicin] + COc1cc(Cc2cnc(N)nc2N)cc(OC)c1OC [Trimethoprim]
fitness, [1], one replicate
Conditions | partner 0.1 µg/mL | partner 0.2 µg/mL | partner 0.4 µg/mL | partner 1 µg/mL | partner 2 µg/mL
first compound 0.625 µg/mL | 0.868 | 0.699 | 0.524 | 0.278 | 0.222
first compound 1.25 µg/mL | 0.849 | 0.646 | 0.504 | 0.228 | 0.152
first compound 2.5 µg/mL | 0.799 | 0.559 | 0.391 | 0.126 | 0.0762

fitness
Conditions | partner 0.125 µg/mL | partner 0.25 µg/mL | partner 0.5 µg/mL | partner 1 µg/mL
[1], first compound 0.625 µg/mL | 0.628 | 0.489 | 0.435 | –
[1], first compound 1.25 µg/mL | 0.582 | – | 0.421 | –
[1], first compound 2.5 µg/mL | 0.469 | 0.393 | 0.37 | –
[2], first compound 0.625 µg/mL | 0.683 | 0.557 | 0.175 | 0.0314
[2], first compound 1.25 µg/mL | 0.742 | 0.56 | 0.0868 | 0.0177
[2], first compound 2.5 µg/mL | 0.728 | 0.523 | 0.0302 | 0.0244

Conditions | Bliss interaction score
[3] | -0.179
[4] | -0.0392
[5] | -0.0539
[6] | 0.0879

C[C@@H]1O[C@@H]1P(=O)(O)O [Fosfomycin] + CC(=O)NC[C@H]1CN(c2ccc(N3CCOCC3)c(F)c2)C(=O)O1 [Linezolid]
Conditions | fitness
[1], first compound 1.562 µg/mL, partner 0.125 µg/mL | 0.507
[1], first compound 3.124 µg/mL, partner 0.125 µg/mL | 0.437
[1], first compound 6.248 µg/mL, partner 0.125 µg/mL | 0.304
[2], first compound 0.781 µg/mL, partner 0.125 µg/mL | 0.691
[2], first compound 0.781 µg/mL, partner 0.25 µg/mL | 0.581
[2], first compound 0.781 µg/mL, partner 0.5 µg/mL | 0.167
[2], first compound 1.562 µg/mL, partner 0.125 µg/mL | 0.598
[2], first compound 1.562 µg/mL, partner 0.25 µg/mL | 0.495
[2], first compound 1.562 µg/mL, partner 0.5 µg/mL | 0.0991
[2], first compound 3.124 µg/mL, partner 0.125 µg/mL | 0.459
[2], first compound 3.124 µg/mL, partner 0.25 µg/mL | 0.339
[2], first compound 3.124 µg/mL, partner 0.5 µg/mL | 0.0673
[7], first compound 1.25 µg/mL, partner 0.105 µg/mL | 0.839
[7], first compound 1.25 µg/mL, partner 0.21 µg/mL | 0.76
[7], first compound 1.25 µg/mL, partner 0.4 µg/mL | 0.314
[7], first compound 1.25 µg/mL, partner 0.42 µg/mL | 0.605
[7], first compound 1.25 µg/mL, partner 0.8 µg/mL | 0.138
[7], first compound 2.5 µg/mL, partner 0.105 µg/mL | 0.803
[7], first compound 2.5 µg/mL, partner 0.2 µg/mL | 0.626
[7], first compound 2.5 µg/mL, partner 0.21 µg/mL | 0.729
[7], first compound 2.5 µg/mL, partner 0.4 µg/mL | 0.315
[7], first compound 2.5 µg/mL, partner 0.42 µg/mL | 0.522
[7], first compound 2.5 µg/mL, partner 0.8 µg/mL | 0.132
[7], first compound 5 µg/mL, partner 0.105 µg/mL | 0.721
[7], first compound 5 µg/mL, partner 0.2 µg/mL | 0.564
[7], first compound 5 µg/mL, partner 0.21 µg/mL | 0.704
[7], first compound 5 µg/mL, partner 0.4 µg/mL | 0.311
[7], first compound 5 µg/mL, partner 0.42 µg/mL | 0.421
[7], first compound 5 µg/mL, partner 0.8 µg/mL | 0.136

fitness, one replicate
Conditions | first compound 0.781 µg/mL | first compound 1.562 µg/mL | first compound 3.124 µg/mL | first compound 6.248 µg/mL
[1], partner 0.0625 µg/mL | – | 0.726 | 0.606 | 0.368
[2], partner 1 µg/mL | 0.0309 | 0.0297 | 0.0078 | –

Conditions | Bliss interaction score
[3] | 0.0981
[4] | 0.123
[5] | 0.0569
[6] | -0.134
